This is an account of results in PubChem BioAssay AID1259411 (Chemical Carcinogenesis Research Information System (CCRIS), 2018).

The data set deals with rodent carcinogenicity bioassays, tumor incidence. In words: CCRIS carcinogenicity studies. Put shortly:
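NCI-built, expert-reviewed records of carcinogenicity and related test outcomes (mutagenicity, tumor promotion/inhibition) compiled from published and report sources, historical span 1985-2011, not updated.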

Calls of active or inactive are those of the source. How the calls were made is not given here.

With `CC[C@H]1OC(=O)[C@H](C)[C@@H](O[C@H]2C[C@@](C)(OC)[C@@H](O)[C@H](C)O2)[C@H](C)[C@@H](O[C@@H]2O[C@H](C)C[C@H](N(C)C)[C@H]2O)[C@](C)(O)C[C@@H](C)C(=O)[C@H](C)[C@@H](O)[C@]1(C)O`, the carcinogen call was “inactive; negative” (Species: MOUSE, Strain/Sex: B6C3F1/FEMALE, Route: ORAL, Dose: 0, 2500, 5000 PPM IN FEED FOR 103 WK (STUDY DURATION: 104 WK), Dose: 0, 2500, 5000 PPM IN FEED FOR 103 WK (STUDY DURATION: 104 WK)); “inactive; negative” (Species: MOUSE, Strain/Sex: B6C3F1/MALE, Route: ORAL, Dose: 0, 2500, 5000 PPM IN FEED FOR 103 WK (STUDY DURATION: 104 WK), Dose: 0, 2500, 5000 PPM IN FEED FOR 103 WK (STUDY DURATION: 104 WK)); “inactive; negative” (Species: RAT, Strain/Sex: F344/FEMALE, Route: ORAL, Dose: 0, 5000, 10000 PPM IN FEED FOR 103 WK (STUDY DURATION: 104 WK), Dose: 0, 5000, 10000 PPM IN FEED FOR 103 WK (STUDY DURATION: 104 WK)); “inactive; negative” (Species: RAT, Strain/Sex: F344/MALE, Route: ORAL, Dose: 0, 5000, 10000 PPM IN FEED FOR 103 WK (STUDY DURATION: 104 WK), Dose: 0, 5000, 10000 PPM IN FEED FOR 103 WK (STUDY DURATION: 104 WK)).

Take `COCCl`: under “Species: MOUSE, Strain/Sex: ICR/FEMALE, Route: SUBCUTANEOUS, Dose: 300 UG IN 0.05 ML NUJOL 1/WK FOR 685 D, Tumor Site: Type of Lesion: INJECTION SITE: SARCOMA”, the carcinogen call was “active; positive”.

Take `CC(C)(C)NC(=O)[C@H]1CC[C@H]2[C@@H]3CC[C@H]4NC(=O)C=C[C@]4(C)[C@H]3CC[C@]12C`: the carcinogen call (Species: MOUSE, Strain/Sex: CD-1/MALE, Route: GAVAGE, Dose: 0, 2.5, 25, 250 MG/KG/D FOR 83 WK (STUDY DURATION: 83 WK), Dose: 0, 2.5, 25, 250 MG/KG/D FOR 83 WK (STUDY DURATION: 83 WK), Tumor Site: Type of Lesion: TESTES: LEYDIG CELL ADENOMA) was “active; positive”.

As to `C[C@]12CC[C@@H]3c4ccc(O)cc4CC[C@H]3[C@@H]1CC[C@@H]2O`, the carcinogen call (Species: GUINEA PIG, Route: SUBCUTANEOUS IMPLANT, Tumor Site: Type of Lesion: UTERUS) was “active; positive”; the carcinogen call (Species: HAMSTER, Route: SUBCUTANEOUS IMPLANT, Tumor Site: Type of Lesion: KIDNEY) was “active; positive”; the carcinogen call (Species: HAMSTER, Strain/Sex: SYRIAN/MALE, Route: SUBCUTANEOUS IMPLANT, Dose: 0, 20 MG IN PELLETS IMPLANTED EVERY 2.5 MO FOR 9 MO (STUDY DURATION: 9 MO), Tumor Site: Type of Lesion: KIDNEY: TUMOR) was “active; positive”; the carcinogen call (Species: MOUSE, Route: ORAL, SUBCUTANEOUS IMPLANT, Tumor Site: Type of Lesion: CERVIX, THYMUS GLAND, MAMMARY GLAND, UTERUS, VAGINA, Tumor Site: Type of Lesion: CERVIX, THYMUS GLAND, MAMMARY GLAND, UTERUS, VAGINA) is “active; positive”; the carcinogen call (Species: MOUSE, Route: SUBCUTANEOUS, Tumor Site: Type of Lesion: LYMPHATIC SYSTEM) was “active; positive”; the carcinogen call (Species: MOUSE, Strain/Sex: BALB/CCRGL/FEMALE, Route: SUBCUTANEOUS, Dose: 5 UG DAILY FOR 5 D BEGINNING 16 HR AFTER BIRTH (STUDY DURATION: 20 MO), Tumor Site: Type of Lesion: CERVICOVAGINAL TRACT: CARCINOMA (16/37)) was “active; positive”. The carcinogen call (Species: RAT, Route: SUBCUTANEOUS IMPLANT, Tumor Site: Type of Lesion: MAMMARY GLAND, PITUITARY GLAND) was “active; positive”.

On to `CC(C)n1c(/C=C/[C@H](O)C[C@H](O)CC(=O)O)c(-c2ccc(F)cc2)c2ccccc21`, for which the carcinogen call is “active; positive” (Species: MOUSE, Strain/Sex: CD-1/FEMALE (70/GROUP), Route: ORAL (GAVAGE), Dose: 0, 0.3, 15, 30 MG/KG/D IN 1% CARBOXYMETHYLCELLULOSE FOR 85 WK, Dose: 0, 0.3, 15, 30 MG/KG/D IN 1% CARBOXYMETHYLCELLULOSE FOR 85 WK, Tumor Site: Type of Lesion: FORESTOMACH: SQUAMOUS PAPILLOMAS); “inactive; negative” (Species: MOUSE, Strain/Sex: CD-1/FEMALE (80/GROUP), Route: ORAL (GAVAGE), Dose: 0, 50, 150, 350 MG/KG/D IN 1% CARBOXYMETHYLCELLULOSE FOR 93 WK, Dose: 0, 50, 150, 350 MG/KG/D IN 1% CARBOXYMETHYLCELLULOSE FOR 93 WK); “active; positive” (Species: MOUSE, Strain/Sex: CD-1/FEMALE, Route: GAVAGE, Dose: 0, 0.3, 15, 30 MG/KG/D FOR 52 OR 85 WK (STUDY DURATION: 86 WK), Dose: 0, 0.3, 15, 30 MG/KG/D FOR 52 OR 85 WK (STUDY DURATION: 86 WK), Tumor Site: Type of Lesion: FORESTOMACH: PAPILLOMA); “inactive; negative” (Species: MOUSE, Strain/Sex: CD-1/FEMALE, Route: GAVAGE, Dose: 0, 50, 150, 350 MG/KG/D FOR 52 OR 84 WK (HIGH DOSE GROUP TERMINATED IN WK 23) (STUDY DURATION: 93 WK), Dose: 0, 50, 150, 350 MG/KG/D FOR 52 OR 84 WK (HIGH DOSE GROUP TERMINATED IN WK 23) (STUDY DURATION: 93 WK)); “inactive; negative” (Species: MOUSE, Strain/Sex: CD-1/MALE (70/GROUP), Route: ORAL (GAVAGE), Dose: 0, 0.3, 15, 30 MG/KG/D IN 1% CARBOXYMETHYLCELLULOSE FOR 85 WK, Dose: 0, 0.3, 15, 30 MG/KG/D IN 1% CARBOXYMETHYLCELLULOSE FOR 85 WK); “inactive; negative” (Species: MOUSE, Strain/Sex: CD-1/MALE (80/GROUP), Route: ORAL (GAVAGE), Dose: 0, 50, 150, 350 MG/KG/D IN 1% CARBOXYMETHYLCELLULOSE FOR 84 WK, Dose: 0, 50, 150, 350 MG/KG/D IN 1% CARBOXYMETHYLCELLULOSE FOR 84 WK). Further, the carcinogen call runs as follows: (Species: MOUSE, Strain/Sex: CD-1/MALE, Route: GAVAGE, Dose: 0, 0.3, 15, 30 MG/KG/D FOR 52 OR 85 WK (STUDY DURATION: 86 WK), Dose: 0, 0.3, 15, 30 MG/KG/D FOR 52 OR 85 WK (STUDY DURATION: 86 WK)) “inactive; negative”; (Species: MOUSE, Strain/Sex: CD-1/MALE, Route: GAVAGE, Dose: 0, 50, 150, 350 MG/KG/D FOR 52 OR 84 WK (HIGH DOSE GROUP TERMINATED IN WK 23) (STUDY DURATION: 84 WK), Dose: 0, 50, 150, 350 MG/KG/D FOR 52 OR 84 WK (HIGH DOSE GROUP TERMINATED IN WK 23) (STUDY DURATION: 84 WK)) “inactive; negative”; (Species: RAT, Strain/Sex: CD (SPRAGUE-DAWLEY)/FEMALE (75/GROUP), Route: ORAL (GAVAGE), Dose: 0, 0.03, 0.3, 3 MG/KG/D IN 1% CARBOXYMETHYLCELLULOSE FOR 101 WKS, Dose: 0, 0.03, 0.3, 3 MG/KG/D IN 1% CARBOXYMETHYLCELLULOSE FOR 101 WKS) “inactive; negative”; (Species: RAT, Strain/Sex: CD (SPRAGUE-DAWLEY)/FEMALE (75/GROUP), Route: ORAL (GAVAGE), Dose: 0, 6, 9, 18-24 MG/KG/D IN 1% CARBOXYMETHYLCELLULOSE FOR 104 WKS, Dose: 0, 6, 9, 18-24 MG/KG/D IN 1% CARBOXYMETHYLCELLULOSE FOR 104 WKS) “inactive; negative”; (Species: RAT, Strain/Sex: CD (SPRAGUE-DAWLEY)/MALE (75/GROUP), Route: ORAL (GAVAGE), Dose: 0, 0.03, 0.3, 3 MG/KG/D IN 1% CARBOXYMETHYLCELLULOSE FOR 95 WKS, Dose: 0, 0.03, 0.3, 3 MG/KG/D IN 1% CARBOXYMETHYLCELLULOSE FOR 95 WKS) “inactive; negative”; (Species: RAT, Strain/Sex: CD (SPRAGUE-DAWLEY)/MALE (75/GROUP), Route: ORAL (GAVAGE), Dose: 0, 6, 9, 18-24 MG/KG/D IN 1% CARBOXYMETHYLCELLULOSE FOR 104 WKS, Dose: 0, 6, 9, 18-24 MG/KG/D IN 1% CARBOXYMETHYLCELLULOSE FOR 104 WKS, Tumor Site: Type of Lesion: THYROID: FOLLICULAR ADENOMA (11/75)) “active; positive”. Further, the carcinogen call by setting is: (Species: RAT, Strain/Sex: STRAIN-CD/FEMALE, Route: GAVAGE, Dose: 0, 0.03, 0.3, 3 MG/KG/D FOR 95 WK (STUDY DURATION: 114 WK), Dose: 0, 0.03, 0.3, 3 MG/KG/D FOR 95 WK (STUDY DURATION: 114 WK)) “inactive; negative”; (Species: RAT, Strain/Sex: STRAIN-CD/FEMALE, Route: GAVAGE, Dose: 0, 6, 9, 18-24 MG/KG/D FOR 104 WK (STUDY DURATION: 104 WK), Dose: 0, 6, 9, 18-24 MG/KG/D FOR 104 WK (STUDY DURATION: 104 WK)) “inactive; negative”; (Species: RAT, Strain/Sex: STRAIN-CD/MALE, Route: GAVAGE, Dose: 0, 0.03, 0.3, 3 MG/KG/D FOR 95 WK (STUDY DURATION: 114 WK), Dose: 0, 0.03, 0.3, 3 MG/KG/D FOR 95 WK (STUDY DURATION: 114 WK)) “inactive; negative”; (Species: RAT, Strain/Sex: STRAIN-CD/MALE, Route: GAVAGE, Dose: 0, 6, 9, 18-24 MG/KG/D FOR 104 WK (STUDY DURATION: 104 WK), Dose: 0, 6, 9, 18-24 MG/KG/D FOR 104 WK (STUDY DURATION: 104 WK)) “inactive; negative”.
